Experimental data from US8748471B2, “2-alkyl-cycloalk(en)yl-carboxamides” (priority 2004, dated 2014).
Where two headings read alike, the source gives them in different places.

Assays:
[1] = log P determination by HPLC on reverse-phase column (C 18), acidic range pH 2.3 (EEC Directive 79/831 Annex V. A8); type: physicochemical; details: for chromatographic logP: reverse-phase HPLC column (C 18)
Description: The stated log P values were determined in accordance with EEC Directive 79/831 Annex V. A8 by HPLC (High Performance Liquid Chromatography) on a reverse-phase column (C 18). Temperature: 43° C. Mobile phases for the determination in the acidic range (pH 2.3): 0.1% aqueous phosphoric acid, acetonitrile; linear gradient from 10% acetonitrile to 90% acetonitrile. Calibration was carried out using unbranched alkan-2-ones (having 3 to 16 carbon atoms) with known log P values (determination of the log P values by the retention times using linear interpolation between two successive alkanones).

Puccinia recondita = assay: Puccinia test (wheat)/protective; type: in vivo; details: 240 h, protective, application rate 500 g/ha, evaluation 10 days after inoculation, 0% = control, 100% = no infection, read-out: Efficacy in %
Description: (§1) To produce a suitable preparation of active compound, 1 part by weight of active compound is mixed with the stated amounts of solvent and emulsifier, and the concentrate is diluted with water to the desired concentration.
To test for protective activity, young plants are sprayed with the preparation of active compound at the stated application rate. After the spray coating has dried on, the plants are sprayed with a conidia suspension of Puccinia recondita. The plants remain in an incubation cabinet at 20° C. and 100% relative atmospheric humidity for 48 hours. The plants are then placed in a greenhouse at a temperature of about 20° C. and a relative atmospheric humidity of 80%.
(§2) Evaluation is carried out 10 days after the inoculation. 0% means an efficacy which corresponds to that of the control, whereas an efficacy of 100% means that no infection is observed.

Botrytis cinerea = assay: Botrytis test (bean)/protective; type: in vivo; details: protective, application rate 500 g/ha, evaluation 2 days after inoculation (size of infected areas), 0% = control, 100% = no infection
Description: (§3) To produce a suitable preparation of active compound, 1 part by weight of active compound is mixed with the stated amounts of solvents and emulsifier, and the concentrate is diluted with water to the desired concentration.
To test for protective activity, young plants are sprayed with the preparation of active compound at the stated application rate. After the spray coating has dried on 2 small pieces of agar colonized by Botrytis cinerea are placed onto each leaf. The inoculated plants are placed in a dark chamber at about 20° C. and 100% relative atmospheric humidity.
2 days after the inoculation, the size of the infected areas on the leaves is evaluated. 0% means an efficacy which corresponds to that of the control, whereas an efficacy of 100% means that no infection is observed.

Venturia inaequalis = assay: Venturia test (apple)/protective; type: in vivo; details: protective, application rate 100 g/ha, evaluation 10 days after inoculation, 0% = control, 100% = no infection
Description: as §3
To test for protective activity, young plants are sprayed with the preparation of active compound at the stated application rate. After the spray coating has dried on, the plants ate inoculated with an aqueous conidia suspension of the apple scab pathogen Venturia inaequalis and then remain in an incubation cabinet as about 20° C. and 100% relative atmospheric humidity for 1 day. The plants are then placed in a greenhouse at about 21° C. and a relative atmospheric humidity of about 90%.
as §2

Alternaria solani = assay: Alternaria test (tomato)/protective; type: in vivo; details: protective, application rate 750 g/ha, evaluation 7 days after inoculation, 0% = control, 100% = no infection
Description: as §1
To test for protective activity, young tomato plants are sprayed with the preparation of active compound at the stated application rate. 1 day after the treatment, the plants are inoculated with a spore suspension of Alternaria solani and then remain at 100% relative atmospheric humidity and 20° C. for 24 h. The plants then remain at 96% relative atmospheric humidity and a temperature of 20° C.
Evaluation is carried out 7 days after the inoculation. 0% means an efficacy which corresponds to that of the control, whereas an efficacy of 100% means that no infection is observed.

[2] = Table 1 (I-c), pH 2.3, HPLC C18, 43° C., main diastereomer or, where several values in a cell, the individual diastereomers
[3] = pH 2.3, Table 1 (I-c), pH 2.3, HPLC C18, 43° C., main diastereomer or, where several values in a cell, the individual diastereomers, read-out: logP
[4] = Table 3 (I-k), pH 2.3, HPLC C18, 43° C., main diastereomer or the individual diastereomers

SMILES	logP [1, 2]	also measured
CC(C)(C)CCC1CCCCC1NC(=O)C1=C(C(F)(F)F)OCCS1 (mixture of isomers) [I-c-39]	4.66	
Cn1cc(C(=O)NC2CCCCC2CCC(C)(C)C)c(C(F)(F)F)n1 (mixture of isomers) [I-c-40]	4.45	
Cn1cc(C(=O)NC2CCCCC2CCC(C)(C)C)c(C(F)(F)F)c1 (mixture of isomers) [I-c-41]	4.88	
CC(C)(C)CCC1CCCCC1NC(=O)c1nccnc1Cl (mixture of isomers) [I-c-42]	4.27	
Cc1nc(C(F)(F)F)c(C(=O)NC2CCCCC2CCC(C)C)s1 (mixture of isomers) [I-c-56]	4.6	
CC(C)CCC1CCCCC1NC(=O)c1cn(C)nc1C(F)(F)F (mixture of isomers) [I-c-57]	4.19	
CC(C)CCC1CCCCC1NC(=O)c1cccnc1Cl (mixture of isomers) [I-c-58]	3.76	
Cc1nc(C(F)F)c(C(=O)NC2CCCCC2CCC(C)C)s1 (mixture of isomers) [I-c-59]	4.46	
Cc1nn(C)c(F)c1C(=O)NC1CCCCC1CCC(C)C (mixture of isomers) [I-c-60]	3.79	
CC(C)CCC1CCCCC1NC(=O)c1ccccc1C(F)(F)F (mixture of isomers) [I-c-61]	4.59	
CC(C)CCC1CCCCC1NC(=O)c1cn(C)nc1C(F)F (mixture of isomers) [I-c-62]	3.95	
Cc1nn(C)cc1C(=O)NC1CCCCC1CCC(C)C (mixture of isomers) [I-c-63]	3.19	
CC(C)CCC1CCCCC1NC(=O)C1=C(C(F)(F)F)OCCS1 (mixture of isomers) [I-c-64]	4.42	
Cc1occc1C(=O)NC1CCCCC1CCC(C)C (mixture of isomers) [I-c-65]	4.28	
CC1=C(C(=O)NC2CCCCC2CCC(C)C)SCCO1 (mixture of isomers) [I-c-68]	4.51	
CC(C[Si](C)(C)C)C1CCCCC1NC(=O)c1cn(C)nc1C(F)F (mixture of isomers) [I-k-6]		logP ([1]; pH 2.3): 4.56
Cc1nc(C(F)F)c(C(=O)NC2CCCCC2C(C)C[Si](C)(C)C)s1 (mixture of isomers) [I-k-8]		logP ([1]; pH 2.3): 5.13
CC(C)CC(C)C1CCCCC1N (stereo not shown) [2-(1,3-dimethylbutyl)cyclohexanamine]		chromatographic logP ([1]; pH 2.3, text of Example 1, pH 2.3, two values = mixture of diastereomers, read-out: log P (pH 2.3)): 4.07
CC(C)CC(C)C1CCCCC1NC(=O)c1cccnc1Cl (stereo not shown) [I-c-2]	4.04	
Cc1nc(C(F)(F)F)c(C(=O)NC2CCCCC2C(C)CC(C)C)s1 (stereo not shown) [I-c-3]	4.71	chromatographic logP [1, 3]: 4.66; pest or weed control at 500 g/ha (Puccinia recondita): 100%
CC(C)CC(C)C1CCCCC1NC(=O)c1cn(C)nc1C(F)(F)F (stereo not shown) [I-c-6]	4.53	Efficacy in % (Botrytis cinerea): 90%; chromatographic logP [1, 3]: 4.1; pest or weed control at 500 g/ha (Puccinia recondita): 100%; Efficacy in % (Venturia inaequalis): 99%
Cc1ccsc1C(=O)NC1CCCCC1C(C)CC(C)C (stereo not shown) [I-c-9]	5.15	chromatographic logP [1, 3]: 4.73; pest or weed control at 500 g/ha (Puccinia recondita): 100%
CC1=C(C(=O)NC2CCCCC2C(C)CC(C)C)SCCO1 (stereo not shown) [I-c-10]	4.83	Efficacy in % (Alternaria solani): 100%; chromatographic logP [1, 3]: 4.52; pest or weed control at 500 g/ha (Puccinia recondita): 100%
CC(C)CC(C)C1CCCCC1NC(=O)c1cn(C)cc1C(F)(F)F (stereo not shown) [I-c-11]	4.83	Efficacy in % (Botrytis cinerea): 96%; chromatographic logP [1, 3]: 4.45; Efficacy in % (Venturia inaequalis): 90%
Cc1occc1C(=O)NC1CCCCC1C(C)CC(C)C (stereo not shown) [I-c-12]	4.58	chromatographic logP [1, 3]: 4.27; pest or weed control at 500 g/ha (Puccinia recondita): 100%
Cn1cc(C(=O)NC2CCCCC2CCC(C)(C)C)c(C(F)F)n1 (stereo not shown) [I-c-19]	4.22	
Cc1nc(C(F)F)c(C(=O)NC2CCCCC2CCC(C)(C)C)s1 (stereo not shown) [I-c-23]	4.71	

SMILES	logP [1, 2]	also measured
Cn1nc(C(F)(F)F)c(C(=O)NC2CCCCC2CCC(C)(C)C)c1F (stereo not shown) [I-c-24]	4.72	
Cc1occc1C(=O)NC1CCCCC1CCC(C)(C)C (stereo not shown) [I-c-25]	4.55	
CC1=C(C(=O)NC2CCCCC2C(C)CC(C)C)CCO1 (stereo not shown) [I-c-26]	4.06	
CC(C)CCC1CCCCC1NC(=O)c1cn(C)cc1C(F)(F)F (stereo not shown) [I-c-69]	4.61	
CC(C)CCC1CCCCC1NC(=O)c1ccccc1I (stereo not shown) [I-c-70]	4.66	
CC(C)CCC1CCCCC1NC(=O)c1ccccc1Cl (stereo not shown) [I-c-71]	4.54	
CC(C)CCC1CCCCC1NC(=O)c1ccsc1I (stereo not shown) [I-c-72]	4.8	
CC(C)CCC1CCCCC1NC(=O)c1c(C(F)(F)F)nn(C)c1F (stereo not shown) [I-c-74]	4.47	
CC(C)CCCC1CCCCC1NC(=O)c1cccnc1Cl (stereo not shown) [I-c-75]	4.22	
CC(C)CCCC1CCCCC1NC(=O)c1cn(C)nc1C(F)(F)F (stereo not shown) [I-c-76]	4.66	
Cc1nn(C)c(Cl)c1C(=O)NC1CCCCC1CCC(C)C (stereo not shown) [I-c-77]	4.07	
Cc1nc(C(F)F)c(C(=O)NC2CCCCC2CCCC(C)C)s1 (stereo not shown) [I-c-78]	4.95	
Cc1nc(C(F)(F)F)c(C(=O)NC2CCCCC2CCCC(C)C)s1 (stereo not shown) [I-c-79]	5.06	
Cn1cc(C(=O)NC2CCCCC2CCC(C)(C)C)c(C(F)F)n1 (stereo not shown) [I-c-81]	4.24	
Cn1nc(C(F)(F)F)c(C(=O)NC2CCCCC2CCC(C)(C)C)c1F (stereo not shown) [I-c-82]	4.72	
CC(C)CCCC1CCCCC1NC(=O)c1cn(C)nc1C(F)F (stereo not shown) [I-c-83]	4.40	
Cc1nn(C)c(F)c1C(=O)NC1CCCCC1CCCC(C)C (stereo not shown) [I-c-84]	4.30	
CC(C)CCCC1CCCCC1NC(=O)c1cn(C)cc1C(F)(F)F (stereo not shown) [I-c-86]	5.05	
CC(C)(C)CCC1CCCCC1NC(=O)c1sccc1C(F)(F)F (stereo not shown) [I-c-95]	5.03	
CC(C)CC(C)C1CCCCC1NC(=O)c1sccc1C(F)(F)F (stereo not shown) [I-c-96]	5.03	
CC(C)(C)CCC1CCCCC1NC(=O)c1ccsc1C(F)(F)F (stereo not shown) [I-c-97]	4.87	
CC(C)CC(C)C1CCCCC1NC(=O)c1ccsc1C(F)(F)F (stereo not shown) [I-c-98]	4.92	
CC(CC(C)(C)C)C1CCCCC1NC(=O)c1sccc1C(F)(F)F (stereo not shown) [I-c-99]	5.29	
Cc1nn(C)c(F)c1C(=O)NC1CCCCC1CC[Si](C)(C)C (stereo not shown) [I-k-1]		logP [1, 4]: 4.15
Cc1nn(C)c(F)c1C(=O)NC1CCCCC1C(C)C[Si](C)(C)C (stereo not shown) [I-k-2]		logP [1, 4]: 4.51
C[Si](C)(C)CCC1CCCCC1NC(=O)c1ccsc1I (stereo not shown) [I-k-3]		logP ([1]; pH 2.3): 5.13
CC(C[Si](C)(C)C)C1CCCCC1NC(=O)c1ccsc1I (stereo not shown) [I-k-4]		logP ([1]; pH 2.3): 5.44
